Counter-ions that a name gives are not always drawn. Like-named read-outs stand apart in the source and are kept apart here.

Assay [1] has as its target T1, SARS-CoV-2 PLpro (nsp3 1564–1878) (Severe acute respiratory syndrome coronavirus 2, UniProt P0DTD1). Put plainly: biochemical. On the set-up: FRET-quenched peptide (Pro3) cleavage by PLpro, 10 min pre-incubation, slope over 20 min, normalised to no-compound control. The settings on record: low concentration screen, read-out: % of control remaining.
Assay [2] addresses T1, SARS-CoV-2 PLpro (nsp3 1564–1878). Put plainly: biochemical. Further details: FRET-quenched peptide (Pro3) cleavage by PLpro, 10 min pre-incubation, slope over 20 min, normalised to no-compound control. The settings on record: high concentration screen, read-out: % of control remaining.

Regarding `Clc1ccc(C2(c3ccc(-c4cn[nH]c4)cc3)CCNCC2)cc1` [AT7867], in assay [1] (Well no.=5295), the remaining activity at 1.25 µM was found to be 95.9%. Besides, the remaining activity at 3.75 µM in assay [2] (Well no.=5295) stood at 96.7%.

Take `N=C(N)c1ccc(OCCCCCOc2ccc(C(=N)N)cc2)cc1` [Pentamidine HCl]: in assay [1] (Well no.=4648), the remaining activity at 1.25 µM stood at 98.3%. Besides, in assay [2] (Well no.=4648), the remaining activity at 3.75 µM was found to be 98.1%.

For `C[C@H](CCC(=O)NCCS(=O)(=O)O)[C@H]1CC[C@H]2[C@@H]3[C@@H](O)C[C@@H]4C[C@H](O)CC[C@]4(C)[C@H]3CC[C@]12C` [Tauroursodeoxycholate (Sodium)], the remaining activity at 1.25 µM in assay [1] (Well no.=6310) was 102%. Besides, in assay [2] (Well no.=6310), the remaining activity at 3.75 µM worked out at 104%.

Take `COc1cc(/C=C/C(=O)O)ccc1O` [Ferulic acid]: the remaining activity at 1.25 µM in assay [1] (Well no.=3518) worked out at 98.9%. Also, in assay [2] (Well no.=3518), the remaining activity at 3.75 µM came to 100%.

For the compound `CCCN(CCc1ccccc1)C1CCc2c(O)cccc2C1` (racemic), the remaining activity at 1.25 µM in assay [1] (Well no.=1357) amounted to 102%. Moreover, in assay [2] (Well no.=1357), the remaining activity at 3.75 µM stood at 103%.

In the case of `CN(C)CCN(C)CCc1ccc(Cl)c(Cl)c1` [BD-1047 (dihydrobromide)], the remaining activity at 1.25 µM in assay [1] (Well no.=7287) worked out at 95.4%. In addition, the remaining activity at 3.75 µM in assay [2] (Well no.=7287) worked out at 97.8%.

Take `CN1C[C@@H]2c3ccccc3Oc3ccc(Cl)cc3[C@H]2C1` (racemic) [Asenapine (hydrochloride)]: the remaining activity at 1.25 µM in assay [1] (Well no.=7661) is 101%. In assay [2] (Well no.=7661), the remaining activity at 3.75 µM amounted to 97%.

As for `Clc1ccc(Nc2nc3ccccc3c3nc(C4CCCCC4)[nH]c23)cc1Cl` [LUF6000], the remaining activity at 1.25 µM in assay [1] (Well no.=8661) was 93.9%. Also, in assay [2] (Well no.=8661), the remaining activity at 3.75 µM stood at 93.1%.

`CCCCCCCCCCCCCC[C@@H](O)[C@@H](O)[C@@H](CO)NC(C)=O` [C2 Phytoceramide]: the remaining activity at 1.25 µM in assay [1] (Well no.=3531) came to 99.2%. Besides, the remaining activity at 3.75 µM in assay [2] (Well no.=3531) was 104%.

For the compound `CCCn1c(=O)c2[nH]c(-c3ccc(OCC(=O)NCCN)cc3)nc2n(CCC)c1=O` [Xanthine amine congener], the remaining activity at 1.25 µM in assay [1] (Well no.=1532) amounted to 95.7%. Besides, the remaining activity at 3.75 µM in assay [2] (Well no.=1532) is 89.4%.

For `CC(=O)Nc1cccc2c1c(Sc1ccc(Cl)cc1)c(C)n2CC(=O)O` [AZD1981], the remaining activity at 1.25 µM in assay [1] (Well no.=7131) was 98.7%. Moreover, the remaining activity at 3.75 µM in assay [2] (Well no.=7131) was 95.7%.

`O=C(NCCCN1CCOCC1)c1cnn2c(-c3ccccc3)cc(-c3ccccc3)nc12` [Reversan]: in assay [1] (Well no.=5656), the remaining activity at 1.25 µM came out at 96.9%. The remaining activity at 3.75 µM in assay [2] (Well no.=5656) is 98.2%.

Take `COc1cc2c3cc1Oc1c(OC)c(OC)cc4c1[C@@H](Cc1ccc(O)c(c1)Oc1ccc(cc1)C[C@@H]3N(C)CC2)N(C)CC4`: the remaining activity at 1.25 µM in assay [1] (Well no.=3633) came out at 103%. For the same compound, in assay [2] (Well no.=3633), the remaining activity at 3.75 µM is 103%.

In the case of `O=C1C(=O)N(Cc2ccc(Cl)c(Cl)c2)c2ccccc21` [MDK83190], the remaining activity at 1.25 µM came to 101% in assay [1] (Well no.=6404) and 94.6% in assay [1] (Well no.=8130). For the same compound, the remaining activity at 3.75 µM in assay [2] (Well no.=6404) is 99.4%; in assay [2] (Well no.=8130) it was 90%.

For `CN(C[C@@H]1COCCO1)S(=O)(=O)Nc1ccc2ccc3ncc(-c4cnn(C)c4)cc3c(=O)c2c1` [MK-2461], the remaining activity at 1.25 µM in assay [1] (Well no.=4737) turned out to be 105%. Moreover, the remaining activity at 3.75 µM in assay [2] (Well no.=4737) came to 105%.

In the case of `O=C(O)/C=C/C=C/C(=O)O` [trans-trans-Muconic acid], in assay [1] (Well no.=6589), the remaining activity at 1.25 µM worked out at 103%. Besides, in assay [2] (Well no.=6589), the remaining activity at 3.75 µM stood at 106%.

Turning to `CCN1C[C@]2(C)CC[C@H](OC)[C@]34C1[C@H]([C@@H](O)[C@H]23)[C@@]1(O)CC[C@H]2C[C@@H]4[C@@H]1C(=O)O2` [Heteratisine], the remaining activity at 1.25 µM in assay [1] (Well no.=3153) was 102%. Besides, the remaining activity at 3.75 µM in assay [2] (Well no.=3153) is 105%.

In the case of `COC(=O)CCc1ccc(OCC(O)CNC(C)C)cc1` (stereo not shown) [Esmolol], the remaining activity at 1.25 µM in assay [1] (Well no.=2286) was 96.3%. The remaining activity at 3.75 µM in assay [2] (Well no.=2286) stood at 96.8%.

Regarding `O=C(c1ccccc1)c1ccc2nc(NC(=O)c3csc(C4CCN(c5ncnc6ccsc56)CC4)n3)[nH]c2c1` [SC75741], the remaining activity at 1.25 µM in assay [1] (Well no.=6922) is 100%. Further, the remaining activity at 3.75 µM in assay [2] (Well no.=6922) came to 101%.

On to `CCCC(=O)NCCc1csc(-c2ccc(Cl)cc2)n1` [Azoramide], for which the remaining activity at 1.25 µM in assay [1] (Well no.=8488) turned out to be 98.4%. Besides, in assay [2] (Well no.=8488), the remaining activity at 3.75 µM turned out to be 99.7%.

With `NC(=O)NCCC[C@H](N)C(=O)O` [L-Citrulline], the remaining activity at 1.25 µM in assay [1] (Well no.=7159) was 108%. Moreover, the remaining activity at 3.75 µM in assay [2] (Well no.=7159) was determined as 102%.

As for `Cc1ccc(NS(=O)(=O)c2ccc3c(c2)C2C=CCC2C(c2ccc(C(=O)O)cc2)N3)cc1C` (stereo not shown) [MX69], the figures for the remaining activity at 1.25 µM in assay [1] (Well no.=6822) and in assay [1] (Well no.=7984) were 97.6% and 100%, respectively. Further, the remaining activity at 3.75 µM in assay [2] (Well no.=6822) came out at 94.1%; in assay [2] (Well no.=7984) it was 98.5%.

In the case of `OCCn1cc(-c2ccc3c(c2)CC/C3=N\O)c(-c2ccncc2)n1` [GDC-0879], in assay [1] (Well no.=5043), the remaining activity at 1.25 µM came to 104%. Also, the remaining activity at 3.75 µM in assay [2] (Well no.=5043) stood at 104%.

Regarding `O=c1ccn([C@@H]2O[C@H](CO)[C@@H](O)[C@H]2O)c(=O)[nH]1` [Uridin], the remaining activity at 1.25 µM in assay [1] (Well no.=8849) was 101%. Besides, the values for the remaining activity at 3.75 µM in assay [2] (Well no.=6399) and in assay [2] (Well no.=8849) were 106% and 94.8%, respectively.

Regarding `COc1cc2nccc(Oc3ccc(NC(=S)NC(=O)c4ccccc4C)cc3)c2cc1OC` [PDGF RTK Inhibitor], the remaining activity at 1.25 µM in assay [1] (Well no.=2509) is 104%. The remaining activity at 3.75 µM in assay [2] (Well no.=2509) stood at 101%.

As to `C[C@]12CCC(=O)C=C1CC[C@@H]1[C@@H]2CC[C@@]2(C)[C@H]1CC[C@]2(O)C(=O)CO` [Cortodoxone], the remaining activity at 1.25 µM in assay [1] (Well no.=7330) came to 98.9%. The remaining activity at 3.75 µM in assay [2] (Well no.=7330) was found to be 98%.

As to `O=C(O)CC(O)C(=O)O` (stereo not shown) [Malic acid], the remaining activity at 1.25 µM in assay [1] (Well no.=6637) was determined as 106%. In addition, in assay [2] (Well no.=6637), the remaining activity at 3.75 µM is 110%.

For `CCOC(=O)CCC(=O)O[C@H]1[C@H](O[C@@H]2[C@@H](C)[C@H](O[C@H]3C[C@@](C)(OC)[C@@H](O)[C@H](C)O3)[C@@H](C)C(=O)O[C@H](CC)[C@@](C)(O)[C@H](O)[C@@H](C)C(=O)[C@H](C)C[C@@]2(C)O)O[C@H](C)C[C@@H]1N(C)C` [Erythromycin Ethylsuccinate], the remaining activity at 1.25 µM in assay [1] (Well no.=5126) turned out to be 100%. Further, the remaining activity at 3.75 µM in assay [2] (Well no.=5126) is 102%.

As for `O=C(O)CCC[C@H](O)\C=C/C=C/C=C/[C@H](O)C/C=C\CCCCCO` [20-Hydroxy-leukotriene B4], the remaining activity at 1.25 µM in assay [1] (Well no.=4425) came to 101%. Further, the remaining activity at 3.75 µM in assay [2] (Well no.=4425) was 103%.

Regarding `CN(C)CCn1cc(S(=O)(=O)c2cccc(F)c2)c2cccnc21` [WAY-208466 dihydrochloride], the remaining activity at 1.25 µM in assay [1] (Well no.=6065) is 98.6%. Moreover, the remaining activity at 3.75 µM in assay [2] (Well no.=6065) came out at 97.1%.

As to `OC(Cn1cncn1)(Cn1cncn1)c1ccc(F)cc1F` [Fluconazole], the remaining activity at 1.25 µM in assay [1] (Well no.=2132) came out at 99.9%. In assay [2] (Well no.=2132), the remaining activity at 3.75 µM is 100%.

Source of the values: paper PMC8286840, “Identifying SARS-CoV-2 antiviral compounds by screening for small molecule inhibitors of Nsp3 papain-like protease” (Biochemical Journal, 2021).
